# Measured values as given in patent US11834489B2 (priority 2017, dated 2023).
# Experiments:
# β2AR = settings: compared to salbutamol, reference 27; cited from earlier work
# [1] = target: labelled β2AR and biotinylated Gs (Homo sapiens, UniProt P07550, C265A/C327S/C341L/C378A/C406A/C77V/L266C/N148C); assay type: biochemical; settings: mean ± s.e.m.
# [2] = target: Cy3B*/Cy7*-labelled β2Δ6-N148C/L266C with Gs(GDP) (Homo sapiens, UniProt P07550, C265A/C327S/C341L/C378A/C406A/C77V/L266C/N148C); assay type: biochemical; settings: transition rate from high- to low-FRET states; saturating ligand, 30 μM GDP, Gs titration
# β2AR-Gs complex = β2AR-Gs complex (Homo sapiens, UniProt P07550, C265A/C327S/C341L/C378A/C406A/C77V/L266C/N148C); assay type: biochemical; settings: normalized to adrenaline
structure (smiles),measurement,setting,value
"CNCC(O)c1ccc(O)c(O)c1 (centres unmarked) [ADR, adrenaline]",extent of [3H]GDP release,β2AR,greater extent of [^3H]GDP release
same,"Lifetime, Biotin-Gs-immobilized, +GDP",[1]; after addition of 30 μM GDP,11.8 ± 1.2 s
same,"Lifetime, Biotin-Gs-immobilized, +GTP",[1]; after addition of 100 μM GTP,6.4 ± 0.1 s
same,"Lifetime, M1-immobilized",[1]; biotin-M1-Fab-immobilized β2AR in the absence of Gs,13.2 ± 3.4 min
same,"Lifetime, Biotin-Gs-immobilized, GNP-free",[1]; nucleotide-free state,11.2 ± 5.1 min
same,khigh→low,[2],0.7 s⁻¹
same,η2,β2AR-Gs complex; apparent EC50 for GDP binding,1.0
same,η1,β2AR-Gs complex; product of apparent kon and khigh→low,1.0
